Read-outs that look alike come from different tables or passages of the source.

Common to all, as to format: cell-based, human
Test [1] has as its system p-ERK in AGS cells (KRAS G12D mutation). Description: Cell p-ERK assay (HTRF, Advance ERK phospho-T202/Y204 kit). The settings on record: AGS cells, 3 hours incubation with compound, HTRF, read-out: AGS p-ERK IC50. In outline:
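Phospho-ERK (T202/Y204) measured by HTRF in lysates of human gastric AGS cells carrying KRAS G12D, after 3 h compound exposure at 0.1% DMSO over a 3.16-fold series. Percent inhibition relative to DMSO control and lysis-only blank; four-parameter curve fitting gave IC50.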
On the technique in general: TR-FRET usually uses a lanthanide donor and a delayed reading to cut background.

Test [2] deals with AGS cells (KRAS G12D). Description: Cell proliferation inhibition assay, 3D, CellTiter-Glo 3D, AGS. The following applies: AGS 3D sphere model, 5 days incubation. A digest of the protocol: (§1)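 Spheroids (800 AsPC-1 or 400 AGS cells/well; RPMI-1640 or F-12K with 10% FBS) formed overnight, then were dosed on day 2 with a 3.16-fold series at 0.1% DMSO. After 5 days, viability was read by CellTiter-Glo 3D luminescence, and IC50 came from four-parameter fits of inhibition versus DMSO control and medium blank.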
(In general: ATP-based viability assays read luminescence as a measure of living cells.)

The subject of test [3] is AsPC-1 cells (KRAS G12D mutation). Nature of the test: Cell proliferation inhibition assay, 3D, CellTiter-Glo 3D, AsPC-1. The settings on record: AsPC-1 3D sphere model, 5 days incubation. In outline: as §1

Turning to “5-ethynyl-3-fluoro-4-((58,5aS,6S,9R)-1-fluoro-S-methyl-12-((1-(morpholinomethyl)cyclopropyl)methoxy)-5a,6,7,8,9,10-hexahydro-5H-4-oxa-3,10a, 11, 13,14-pentaaza-6,9-methanonaphtho[1,8-ab]heptalene-2-yl) naphthalen-2-amine [Example Z707]”, the 50% inhibitory concentration (IC50) was determined as 0.95 nM in test [1], 7.44 nM in test [2] and 5.24 nM in test [3].

With `C#Cc1c(F)ccc2cccc(-c3nc4c5c(nc(OCC67CC(=C)CN6CC(F)C7)nc5c3F)N3C[C@H]5CC[C@H](N5)[C@H]3[C@H](C)O4)c12` (stereo partly drawn) [Example Z607, (5S,5aS,6S,9R)-2-(8-ethynyl-7-fluoronaphthalen-1-yl)-1-fluoro-12-((2-fluoro-6-methylenetetrahydro-1H-pyrrolizin-7a (5H)-yl)methoxy)-5-methyl-5a,6,7,8,9,10-hexahydro-5H-4-oxa-3,10a,11,13,14-pentaaza-6,9-methanonaphtho[1,8-ab]heptalene], the IC50 in test [1] (Homo sapiens) was 24.4 nM; in test [2] (Homo sapiens, 120 h), 81.2 nM; in test [3] (Homo sapiens, ASPC1, 120 h), 101 nM.

Regarding `C#Cc1cccc2cccc(-c3nc4c5c(nc(OC[C@@]67CCCN6C[C@H](F)C7)nc5c3F)N3C[C@H]5CC[C@H](N5)[C@H]3[C@H](C)O4)c12` [Example Z360-1, (5S,5aS,6S,9R)-2-(8-ethynylnaphthalen-1-yl)-1-fluoro-12-(((2R,7aS)-2-fluorotetrahydro-1H-pyrrolizin-7a (5H)-yl)methoxy)-5-methyl-5a,6,7,8,9,10-hexahydro-5H-4-oxa-3,10a, 11,13,14-pentaaza-6,9-methanonaphtho[1,8-ab]heptalene], the IC50 in test [1] (Homo sapiens) was found to be 29.9 nM; in test [2] (Homo sapiens, 120 h), 27.8 nM; in test [3] (Homo sapiens, ASPC1, 120 h), 36.4 nM.

For the molecule `C#Cc1c(F)ccc2cccc(-c3nc4c5c(nc(OCC67CCCN6CCC7=C(F)F)nc5c3F)N3C[C@H]5CC[C@H](N5)[C@H]3[C@H](C)O4)c12` (stereo partly drawn) [Example Z612, (5S,5aS,6S,9R)-12-((1-(difluoromethylene)tetrahydro-1H-pyrrolizin-7a (5H)-yl)methoxy)-2-(8-ethynyl-7-fluoronaphthalen-1-yl)-1-fluoro-5-methyl-5a,6,7,8,9,10-hexahydro-5H-4-oxa-3,10a, 11,13,14-pentaaza-6,9-methanonaphtho[1,8-ab]heptalene], the IC50 turned out to be 99.3 nM in test [1] (Homo sapiens); 65.4 nM in test [2] (Homo sapiens, 120 h); 124 nM in test [3] (Homo sapiens, ASPC1, 120 h).

For `C#Cc1c(F)ccc2cccc(-c3nc4c5c(nc(OCC67CC(=C)CN6C[C@H](F)C7)nc5c3F)N3C[C@H]5CC[C@H](N5)[C@H]3[C@H](CO)O4)c12` (stereo partly drawn) [Example Z654, ((5R,5aS,6S,9R)-2-(8-ethynyl-7-fluoronaphthalen-1-yl)-1-fluoro-12-(((2R)-2-fluoro-6-methylenetetrahydro-1H-pyrrolizin-7a (5H)-yl)methoxy)-5a,6,7,8,9,10-hexahydro-5H-4-oxa-3,10a,11,13,14-pentaaza-6,9-methanonaphtho[1,8-ab]heptalen-5-yl)methanol], the half-maximal inhibitory concentration (IC50) in test [1] (Homo sapiens) came out at 136 nM; in test [2] (Homo sapiens, 120 h), 726 nM; in test [3] (Homo sapiens, ASPC1, 120 h), 389 nM.

For `C#Cc1c(F)ccc2cccc(-c3nc4c5c(nc(OC[C@]67CCCN6CC(=C)C7)nc5c3F)N3C[C@H]5CC[C@H](N5)[C@H]3[C@H](C)O4)c12` (single isomer, unassigned) [Example Z636], the IC50 in test [1] (Homo sapiens) was 10.5 nM; in test [2] (Homo sapiens, 120 h), 10.9 nM; in test [3] (Homo sapiens, ASPC1, 120 h), 30.6 nM.

With `C#Cc1cccc2c(F)c(N)cc(-c3nc4c5c(nc(OCC67CC(=C)CN6CC(=C)C7)nc5c3F)N3C[C@H]5CC[C@H](N5)[C@H]3[C@H](C)O4)c12` [Example Z727, 4-((5S,5aS,6S,9R)-12-((2,6-dimethylenetetrahydro-1H-pyrrolizin-7a (5H)-yl)methoxy)-1-fluoro-5-methyl-5a,6,7,8,9,10-hexahydro-5H-4-oxa-3,10a, 11,13,14-pentaaza-6,9-methanonaphtho[1,8-ab]heptalene-2-yl)-5-ethynyl-1-fluoronaphthalen-2-amine], the IC50 in test [1] (Homo sapiens) worked out at 5.01 nM; in test [2] (Homo sapiens, 120 h), 9.3 nM; in test [3] (Homo sapiens, ASPC1, 120 h), 12.3 nM.

As to `C#Cc1cccc2cncc(-c3nc4c5c(nc(OCC67CC(=C)CN6C[C@H](F)C7)nc5c3F)N3C[C@H]5CC[C@H](N5)[C@H]3[C@H](C)O4)c12` (stereo partly drawn) [Example Z684, (5S,5aS,6S,9R)-2-(5-ethynylisoquinolin-4-yl)-1-fluoro-12-(((2R)-2-fluoro-6-methylenetetrahydro-1H-pyrrolizin-7a (5H)-yl)methoxy)-5-methyl-5a,6,7,8,9,10-hexahydro-5H-4-oxa-3,10a, 11,13,14-pentaaza-6,9-methanonaphtho[1,8-ab]heptalene], the IC50 turned out to be 57.5 nM in test [1] (Homo sapiens); 341 nM in test [2] (Homo sapiens, 120 h); 326 nM in test [3] (Homo sapiens, ASPC1, 120 h).

For the molecule `C#Cc1c(F)ccc2cccc(-c3nc4c5c(nc(OCC(=C)CN6CCOCC6)nc5c3F)N3C[C@H]5CC[C@H](N5)[C@H]3[C@H](C)O4)c12` [Example Z687, (5S,5aS,6S,9R)-2-(8-ethynyl-7-fluoronaphthalen-1-yl)-1-fluoro-5-methyl-12-((2-(morpholinomethyl)allyl)oxy)-5a,6,7,8,9,10-hexahydro-5H-4-oxa-3,10a,11,13,14-pentaaza-6,9-methanonaphtho[1,8-ab]heptalene], the half-inhibitory concentration (IC50) in test [1] (Homo sapiens) amounted to 193 nM; in test [2] (Homo sapiens, 120 h) it was 392 nM; in test [3] (Homo sapiens, ASPC1, 120 h), 513 nM.

With `C#Cc1c(F)ccc2cc(N)cc(-c3nc4c5c(nc(OCC67CCCN6CC(F)(F)C7)nc5c3F)N3C[C@H]5CC[C@H](N5)[C@H]3[C@H](C)O4)c12` (stereo partly drawn) [Example Z722, 4-((5S,5aS,6S,9R)-12-((2,2-difluorotetrahydro-1H-pyrrolizin-7a (5H)-yl)methoxy)-1-fluoro-5-methyl-5a,6,7,8,9,10-hexahydro-5H-4-oxa-3,10a, 11,13,14-pentaaza-6,9-methanonaphtho[1,8-ab]heptalene-2-yl)-5-ethynyl-6-fluoronaphthalen-2-amine], the 50% inhibitory concentration (IC50) in test [1] (Homo sapiens) was determined as 7.22 nM; in test [2] (Homo sapiens, 120 h), 12.8 nM; in test [3] (Homo sapiens, ASPC1, 120 h) it was 9.29 nM.

With `C#Cc1cccc2cc(N)cc(-c3nc4c5c(nc(OCC67CCCN6CC(F)(F)C7)nc5c3F)N3C[C@H]5CC[C@H](N5)[C@H]3[C@H](C)O4)c12` (stereo partly drawn) [Example Z706, 4-((5S,5aS,6S,9R)-12-((2,2-difluorotetrahydro-1H-pyrrolizin-7a (5H)-yl)methoxy)-1-fluoro-5-methyl-5a,6,7,8,9,10-hexahydro-5H-4-oxa-3,10a,11,13,14-pentaaza-6,9-methanonaphtho[1,8-ab]heptalen-2-yl)-5-ethynylnaphthalen-2-amine], the IC50 in test [1] (Homo sapiens) stood at 6.64 nM; in test [2] (Homo sapiens, 120 h), 26 nM; in test [3] (Homo sapiens, ASPC1, 120 h), 37.9 nM.

On to `C#Cc1c(F)ccc2cccc(-c3nc4c5c(nc(OCC67CC(=C)CN6CC6(CC6)C7)nc5c3F)N3C[C@H]5CC[C@H](N5)[C@H]3[C@H](C)O4)c12` (stereo partly drawn) [Example Z599], for which the figures for the IC50 in test [1], in test [2] and in test [3] were 27.6 nM, 10.8 nM and 22.3 nM, respectively.

As for `C#Cc1c(F)ccc2cccc(-c3nc4c5c(nc(OCC67CC(=C)CN6C[C@@H](OC)C7)nc5c3F)N3C[C@H]5CC[C@H](N5)[C@H]3[C@H](C)O4)c12` (stereo partly drawn) [Example Z692, (5S,5aS,6S,9R)-2-(8-ethynyl-7-fluoronaphthalen-1-yl)-1-fluoro-12-(((2S)-2-methoxy-6-methylenetetrahydro-1H-pyrrolizin-7a (5H)-yl)methoxy)-5-methyl-5a,6,7,8,9,10-hexahydro-5H-4-oxa-3,10a,11,13,14-pentaaza-6,9-methanonaphtho[1,8-ab]heptalene], the IC50 in test [1] (Homo sapiens) came out at 188 nM; in test [2] (Homo sapiens, 120 h), 378 nM; in test [3] (Homo sapiens, ASPC1, 120 h), 290 nM.

In the case of `C#Cc1cccc2cccc(-c3nc4c5c(nc(OC[C@@]67CCCN6C[C@H](F)C7)nc5c3F)N3C[C@H]5CC[C@H](N5)[C@H]3[C@H](CC)O4)c12` [Example Z387, (5S,5aS,6S,9R)-5-ethyl-2-(8-ethynylnaphthalen-1-yl)-1-fluoro-12-(((2R,7aS)-2-fluorotetrahydro-1H-pyrrolizin-7a (5H)-yl)methoxy)-5a,6,7,8,9,10-hexahydro-5H-4-oxa-3,10a, 11,13,14-pentaaza-6,9-methanonaphtho[1,8-ab]heptalene], the 50% inhibitory concentration (IC50) was determined as 50.2 nM in test [1] (Homo sapiens); 73.3 nM in test [2] (Homo sapiens, 120 h); 202 nM in test [3] (Homo sapiens, ASPC1, 120 h).

For `C#Cc1c(F)ccc2cccc(-c3nc4c5c(nc(OCC67CC(=C)CN6C[C@H](F)C7)nc5c3F)N3C[C@H]5CC[C@H](N5)[C@H]3[C@H](C)O4)c12` (stereo partly drawn) [Example Z633, (5S,5aS,6S,9R)-2-(8-ethynyl-7-fluoronaphthalen-1-yl)-1-fluoro-12-(((2R)-2-fluoro-6-methylenetetrahydro-1H-pyrrolizin-7a (5H)-yl)methoxy)-5-methyl-5a,6,7,8,9,10-hexahydro-5H-4-oxa-3,10a,11,13,14-pentaaza-6,9-methanonaphtho[1,8-ab]heptalene], the IC50 was found to be 14.5 nM in test [1] (Homo sapiens); 59 nM in test [2] (Homo sapiens, 120 h); 56.7 nM in test [3] (Homo sapiens, ASPC1, 120 h).

In the case of `C#Cc1c(F)ccc2cccc(-c3nc4c5c(nc(OCC67CC(=C)CN6CC(=C)C7)nc5c3F)N3C[C@H]5CC[C@H](N5)[C@H]3CCO4)c12` [Example Z629], the IC50 in test [1] (Homo sapiens) was 50 nM; in test [2] (Homo sapiens, 120 h), 51.7 nM; in test [3] (Homo sapiens, ASPC1, 120 h), 167 nM.

One may read the IC50 as the concentration that inhibits the measured activity by half.
